biological target: HCV NS3 protease (UniProt P26663); format: biochemical, HCV genotype 1b; set-up: rows headed: IC50 (μM); IC50 (μM); details: Table 3
Sequence (P26663 1027-1206, other chains not shown): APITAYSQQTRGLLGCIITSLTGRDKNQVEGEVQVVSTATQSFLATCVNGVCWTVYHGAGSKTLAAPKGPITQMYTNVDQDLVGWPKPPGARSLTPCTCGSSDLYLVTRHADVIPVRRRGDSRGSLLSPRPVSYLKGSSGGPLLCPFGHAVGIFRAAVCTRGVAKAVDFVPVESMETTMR

Structure (SMILES)	IC50 [nM]
C=C[C@H]1C[C@]1(NC(=O)[C@@H]1CC(Oc2cc(-c3ccccc3)nc3ccc([N+](=O)[O-])cc23)CN1C(=O)[C@@H](NC(=O)OC(C)(C)C)C1CCCCC1)C(=O)O (stereo partly drawn) [compound 307]	270

same assay, conditions: Table 5

Structure (SMILES)	IC50 [nM]
C=CC1CC1(NC(=O)C1CC(Oc2ccnc3ccccc23)CN1C(=O)C(NC(=O)OC(C)(C)C)C(C)OC(C)(C)C)C(=O)O (stereo not drawn) [compound 503]	790
C=CC1CC1(NC(=O)C1CC(Oc2ccnc3ccccc23)CN1C(=O)C(NC(=O)OC(C)(C)C)C(C)(C)SCNC(C)=O)C(=O)O (stereo not drawn) [compound 507]	980
C=CC1CC1(NC(=O)C1CC(Oc2ccnc3ccccc23)CN1C(=O)C(NC(=O)OC(C)(C)C)C(O)C1CCCCC1)C(=O)O (stereo not drawn) [compound 511]	2100
C=CC1C[C@]1(NC(=O)[C@@H]1C[C@@H](Oc2ccnc3ccccc23)CN1C(=O)[C@@H](NC(=O)OC(C)(C)C)C(C)(C)C)C(=O)O (stereo partly drawn) [compound 501]	400

same assay, conditions: Table 6

Structure (SMILES)	IC50 [nM]
C=CC1CC1(NC(=O)C1CC(Oc2cc(CN(C)C)nc3ccccc23)CN1C(=O)C(NC(=O)OC(C)(C)C)C(C)(C)C)C(=O)O (stereo not drawn) [compound 618]	2300
C=CC1CC1(NC(=O)C1CC(Oc2cc(N3CCCCC3)nc3ccccc23)CN1C(=O)C(NC(=O)OC(C)(C)C)C(C)(C)C)C(=O)O (stereo not drawn) [compound 617]	345
C=CC1CC1(NC(=O)C1CC(Oc2cc(OC)nc3ccccc23)CN1C(=O)C(NC(=O)OC(C)(C)C)C(C)(C)C)C(=O)O (stereo not drawn) [compound 623]	200

same assay, conditions: Table 7

Structure (SMILES)	IC50 [nM]
C=CC1CC1(NC(=O)C1CC(Oc2cc(-c3csc(NCC)n3)nc3cc(OC)ccc23)CN1C(=O)C(NC(=O)OC(C)(C)C)C(C)(C)C)C(=O)O (stereo not drawn) [compound 722]	48
C=CC1CC1(NC(=O)C1CC(Oc2cc(-c3csc(NC(C)(C)C)n3)nc3cc(OC)ccc23)CN1C(=O)C(NC(=O)OC(C)(C)C)C(C)(C)C)C(=O)O (stereo not drawn) [compound 733]	28
C=CC1CC1(NC(=O)C1CC(Oc2cc(N3CCC(OC)CC3)nc3cc(OC)ccc23)CN1C(=O)C(NC(=O)OC(C)(C)C)C(C)(C)C)C(=O)O (stereo not drawn) [compound 721]	45
C=CC1CC1(NC(=O)C1CC(Oc2cc(-c3cscn3)nc3cc(OC)ccc23)CN1C(=O)C(NC(=O)OC(C)(C)C)C(C)(C)C)C(=O)O (stereo not drawn) [compound 713]	26
C=CC1CC1(NC(=O)C1CC(Oc2cc(C=Cc3ccccc3)nc3cc(OC)ccc23)CN1C(=O)C(NC(=O)OC(C)(C)C)C(C)(C)C)C(=O)O (stereo not drawn) [compound 702]	100
C=CC1CC1(NC(=O)C1CC(Oc2cc(-c3nccs3)nc3cc(OC)ccc23)CN1C(=O)C(NC(=O)OC(C)(C)C)C(C)(C)C)C(=O)O (stereo not drawn) [compound 707]	23
C=CC1CC1(NC(=O)C1CC(Oc2cc(N3CCOCC3)nc3cc(OC)ccc23)CN1C(=O)C(NC(=O)OC(C)(C)C)C(C)(C)C)C(=O)O (stereo not drawn) [compound 705]	130
C=CC1CC1(NC(=O)C1CC(Oc2cc(-c3cnn(C)c3)nc3cc(OC)ccc23)CN1C(=O)C(NC(=O)OC(C)(C)C)C(C)(C)C)C(=O)O (stereo not drawn) [compound 701]	28
C=CC1CC1(NC(=O)C1CC(Oc2cc(-c3cccs3)nc3cc(OC)ccc23)CN1C(=O)C(NC(=O)OC(C)(C)C)C(C)(C)C)C(=O)O (stereo not drawn) [compound 706]	32
C=CC1CC1(NC(=O)C1CC(Oc2cc(-c3csc(NC(C)=O)n3)nc3cc(OC)ccc23)CN1C(=O)C(NC(=O)OC(C)(C)C)C(C)(C)C)C(=O)O (stereo not drawn) [compound 719]	18
C=CC1C[C@]1(NC(=O)[C@@H]1C[C@@H](Oc2cc(N)nc3cc(OC)ccc23)CN1C(=O)[C@@H](NC(=O)OC(C)(C)C)C(C)(C)C)C(=O)O (stereo partly drawn) [compound 718]	160
C=CC1CC1(NC(=O)C1CC(Oc2cc(-c3csc(CC)n3)nc3cc(OC)ccc23)CN1C(=O)C(NC(=O)OC(C)(C)C)C(C)(C)C)C(=O)O (stereo not drawn) [compound 714]	12

same assay, conditions: Table 8

Structure (SMILES)	IC50 [nM]
C=CC1CC1(NC(=O)C1CC(Oc2cc(-c3ccccc3)nc3cc(OC)ccc23)CN1C(=O)C(NC(=O)OC(C)(C)C)C1CCCCC1)C(=O)O (stereo not drawn) [compound 847]	37
C=CC1CC1(NC(=O)C1CC(Oc2cc(-c3ccccc3)nc3cc(OC)ccc23)CN1C(=O)C(NC(=O)OC(C)(C)C)C(C)OC)C(=O)O (stereo not drawn) [compound 852]	50
C=CC1CC1(NC(=O)C1CC(Oc2cc(-c3ccccc3)nc3cc(OC)ccc23)CN1C(=O)C(Nc1cccc(C)c1)C(C)C)C(=O)O (stereo not drawn) [compound 834]	74
C=CC1CC1(NC(=O)C1CC(Oc2cc(-c3ccccc3)nc3cc(OC)ccc23)CN1C(=O)C(Nc1cc(F)cc(F)c1)C(C)C)C(=O)O (stereo not drawn) [compound 862]	230
C=CC1CC1(NC(=O)C1CC(Oc2cc(-c3ccccc3)nc3cc(OC)ccc23)CN1C(=O)C(NC(=O)NCC)C(C)(C)C)C(=O)O (stereo not drawn) [compound 816]	32
C=CC1CC1(NC(=O)C1CC(Oc2cc(-c3ccccc3)nc3cc(OC)ccc23)CN1C(=O)C(NC(C)=O)C(C)(C)C)C(=O)O (stereo not drawn) [compound 805]	83
C=CC1CC1(NC(=O)C1CC(Oc2cc(-c3ccccc3)nc3cc(OC)ccc23)CN1C(=O)C(NC(=O)NC(C)(C)CO)C(C)(C)C)C(=O)O (stereo not drawn) [compound 835]	7
C=CC1CC1(NC(=O)C1CC(Oc2cc(-c3ccccc3)nc3cc(OC)ccc23)CN1C(=O)C(Nc1cccc(CO)c1)C(C)C)C(=O)O (stereo not drawn) [compound 838]	94
C=CC1CC1(NC(=O)C1CC(Oc2cc(-c3ccccc3Cl)nc3cc(OC)ccc23)CN1C(=O)C(NC(=O)OC(C)(C)C)C(C)(C)C)C(=O)O (stereo not drawn) [compound 814]	130
C=CC1CC1(NC(=O)C1CC(Oc2cc(-c3ccccc3)nc3cc(OC)ccc23)CN1C(=O)C(Nc1ccc(N)c(C(F)(F)F)c1)C(C)C)C(=O)O (stereo not drawn) [compound 820]	63
C=CC1CC1(NC(=O)C1CC(Oc2cc(-c3ccccc3)nc3cc(OC)ccc23)CN1C(=O)C(Nc1ccc(CC#N)cc1)C(C)C)C(=O)O (stereo not drawn) [compound 856]	110
C=CC1CC1(NC(=O)C1CC(Oc2cc(-c3ccccc3)nc3cc(OC)ccc23)CN1C(=O)C(NC(=O)Nc1c(C)cccc1C)C(C)(C)C)C(=O)O (stereo not drawn) [compound 829]	57
C=CC1CC1(NC(=O)C1CC(Oc2cc(-c3ccc(C)cc3)nc3cc(OC)ccc23)CN1C(=O)C(NC(=O)OC(C)(C)C)C(C)(C)C)C(=O)O (stereo not drawn) [compound 843]	53
C=CC1CC1(NC(=O)C1CC(Oc2cc(-c3ccccc3)nc3cc(OC)ccc23)CN1C(=O)C(Nc1cccc(C(C)=O)c1)C(C)C)C(=O)O (stereo not drawn) [compound 828]	100
C=CC1CC1(NC(=O)C1CC(Oc2cc(-c3ccccc3)nc3cc(OC)ccc23)CN1C(=O)C(CC(C)C)NC(=O)OC(C)(C)C)C(=O)O (stereo not drawn) [compound 848]	93
C=CC1CC1(NC(=O)C1CC(Oc2cc(-c3cccc(Cl)c3)nc3cc(OC)ccc23)CN1C(=O)C(NC(=O)OC(C)(C)C)C(C)(C)C)C(=O)O (stereo not drawn) [compound 815]	160
C=CC1CC1(NC(=O)C1CC(Oc2cc(-c3ccc(OC)cc3)nc3cc(OC)ccc23)CN1C(=O)C(NC(=O)NC(C)(C)C)C(C)(C)C)C(=O)O (stereo not drawn) [compound 844]	6
C=CC1CC1(NC(=O)C1CC(Oc2cc(-c3ccccc3)nc3cc(OC)ccc23)CN1C(=O)C(Nc1cccc(CC#N)c1)C(C)C)C(=O)O (stereo not drawn) [compound 861]	170
C=CC1CC1(NC(=O)C1CC(Oc2cc(-c3ccccc3)nc3cc(OC)ccc23)CN1C(=O)C(Nc1ccc([N+](=O)[O-])cc1)C(C)C)C(=O)O (stereo not drawn) [compound 836]	130
C=CC1CC1(NC(=O)C1CC(Oc2cc(-c3ccccc3)nc3cc(OC)ccc23)CN1C(=O)C(NC(=O)OC(C)(C)C)C(C)OC(C)(C)C)C(=O)O (stereo not drawn) [compound 850]	63
C=CC1CC1(NC(=O)C1CC(Oc2cc(-c3ccccc3)nc3cc(OC)ccc23)CN1C(=O)C(NC(=O)OC)C(C)(C)C)C(=O)O (stereo not drawn) [compound 830]	111

same assay, conditions: Table 9

Structure (SMILES)	IC50 [nM]
C=CC1CC1(NC(=O)C1CC(Oc2cc(-c3ccccc3)nc3cc(OC)ccc23)CN1C(=O)C(NC(=O)OC1CCSC1)C(C)(C)C)C(=O)O (stereo not drawn) [compound 907]	25

From patent publication US6534523B1, “Hepatitis C inhibitor tri-peptides” (Boehringer Ingelheim (Canada) Ltd., priority 1998, dated 2003)
